Columns and labels:
[1] = tested on: TRPV3 single point mutants (V587L, F625L, F656I and F666Y); details: 2-APB 3 mM, room temperature
Method: All channel constructs were expressed in Xenopus laevis oocytes and studied using the two-electrode voltage clamp technique (TEVC) following 1–4 days of incubation after cRNA injection. The animal care and experimental procedures were performed in accordance with the Guide for the Care and Use of Laboratory Animals and were approved by the Animal Care and Use Committee of the National Institute of Neurological Disorders and Stroke (Animal protocol number 1253–17). Oocytes were removed surgically and incubated with agitation for 1 hr in a solution containing (in mM) 82.5 NaCl, 2.5 KCl, 1 MgCl2, 5 HEPES, pH 7.6 (with NaOH), and collagenase (2 mg/ml; Worthington Biochemical, Lakewood, NJ). […]
For temperature-activation experiments, calcium-activated chloride currents were minimized by using calcium-free solution containing 30 µM Caccinh-A01 and recording at negative membrane voltages. Heat stimuli were achieved by passing the external recording solution through glass capillary spirals immersed in a water bath maintained at about 70°C, and recordings were performed during constant perfusion with temperature measured using a thermistor (TA-29, Warner Instruments) located close to the cell. […] The mean I vs T relations were calculated by automatically binning each of the recordings in temperature intervals of 2°C, and averaging a single data point within each interval per cell. […]

[2] = tested on: TRPV3-6M + I595L, K611D, L635F, L639M or Y650F; test: Two-electrode voltage clamp, TRPV3-6M with individual pore mutations (weak RTx responders); assay type: cell-based, mouse; details: RTx 100 nM, room temperature; smaller than responses to 2-APB
Method: (§1) All channel constructs were expressed in Xenopus laevis oocytes and studied using the two-electrode voltage clamp technique (TEVC) following 1–4 days of incubation after cRNA injection. The animal care and experimental procedures were performed in accordance with the Guide for the Care and Use of Laboratory Animals and were approved by the Animal Care and Use Committee of the National Institute of Neurological Disorders and Stroke (Animal protocol number 1253–17). Oocytes were removed surgically and incubated with agitation for 1 hr in a solution containing (in mM) 82.5 NaCl, 2.5 KCl, 1 MgCl2, 5 HEPES, pH 7.6 (with NaOH), and collagenase (2 mg/ml; Worthington Biochemical, Lakewood, NJ). Defolliculated oocytes were injected with cRNA for each of the constructs and incubated at 17°C in a solution containing (in mM) 96 NaCl, 2 KCl, 1 MgCl2, 1.8 CaCl2, 5 HEPES, pH 7.6 (with NaOH), and gentamicin (50 μg/ml, GIBCO-BRL, Gaithersburg, MD). Oocyte membrane voltage was controlled using an OC-725C oocyte clamp (Warner Instruments, Hamden, CT). Data were filtered at 1–3 kHz and digitized at 20 kHz using pClamp software (Molecular Devices, Sunnyvale, CA) and a Digidata 1440A digitizer (Axon Instruments). Microelectrode resistances were 0.1–1 MΩ when filled with 3 M KCl. For recording TRP channel currents, the external recording solution contained (in mM) 100 KCl, 10 HEPES, pH 7.6 (with KOH). […]

[3] = tested on: TRPV3-6M + V587L, A606V, F625L, F656I or F666Y; test: Two-electrode voltage clamp, TRPV3-6M with individual pore mutations (strong RTx responders); assay type: cell-based, mouse; details: RTx 100 nM, room temperature; magnitude very similar to 2-APB 3 mM
Method: as §1

TRPV3-6M + 5PM = target: T1, TRPV3-6M + 5PM (Mus musculus, UniProt Q8K424, A560T/A606V/F522S/F625L/F656I/F666Y/H523E/L557M/Q580E/V587L/W521Y); test: Two-electrode voltage clamp, TRPV3-6M + 5PM in oocytes; assay type: cell-based
T1 construct: expressed in transfected cells; host or cells: Xenopus laevis oocytes
T1 sequence (Q8K424 1-791 W521Y/F522S/H523E/L557M/A560T/Q580E/V587L/A606V/F625L/F656I/F666Y): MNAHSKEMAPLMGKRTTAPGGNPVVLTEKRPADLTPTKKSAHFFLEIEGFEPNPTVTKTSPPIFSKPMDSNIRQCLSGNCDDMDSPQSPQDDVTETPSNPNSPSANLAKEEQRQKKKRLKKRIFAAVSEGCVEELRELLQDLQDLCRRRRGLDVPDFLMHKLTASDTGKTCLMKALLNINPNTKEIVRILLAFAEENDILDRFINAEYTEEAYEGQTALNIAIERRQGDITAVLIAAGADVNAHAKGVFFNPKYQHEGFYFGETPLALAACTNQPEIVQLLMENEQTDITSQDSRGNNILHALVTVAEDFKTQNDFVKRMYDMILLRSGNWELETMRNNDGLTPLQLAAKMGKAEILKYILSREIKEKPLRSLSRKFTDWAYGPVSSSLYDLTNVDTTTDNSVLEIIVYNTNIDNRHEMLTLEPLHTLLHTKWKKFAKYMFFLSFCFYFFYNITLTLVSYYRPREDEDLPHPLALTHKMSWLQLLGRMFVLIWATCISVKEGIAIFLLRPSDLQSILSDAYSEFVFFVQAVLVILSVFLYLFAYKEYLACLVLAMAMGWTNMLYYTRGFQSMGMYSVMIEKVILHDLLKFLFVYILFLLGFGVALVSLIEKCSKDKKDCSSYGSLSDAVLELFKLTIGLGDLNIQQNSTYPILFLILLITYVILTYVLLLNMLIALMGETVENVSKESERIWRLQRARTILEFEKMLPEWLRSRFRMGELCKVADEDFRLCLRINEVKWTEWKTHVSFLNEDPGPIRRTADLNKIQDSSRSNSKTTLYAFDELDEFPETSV
Method: All channel constructs were expressed in Xenopus laevis oocytes and studied using the two-electrode voltage clamp technique (TEVC) following 1–4 days of incubation after cRNA injection. The animal care and experimental procedures were performed in accordance with the Guide for the Care and Use of Laboratory Animals and were approved by the Animal Care and Use Committee of the National Institute of Neurological Disorders and Stroke (Animal protocol number 1253–17). Oocytes were removed surgically and incubated with agitation for 1 hr in a solution containing (in mM) 82.5 NaCl, 2.5 KCl, 1 MgCl2, 5 HEPES, pH 7.6 (with NaOH), and collagenase (2 mg/ml; Worthington Biochemical, Lakewood, NJ). Defolliculated oocytes were injected with cRNA for each of the constructs and incubated at 17°C in a solution containing (in mM) 96 NaCl, 2 KCl, 1 MgCl2, 1.8 CaCl2, 5 HEPES, pH 7.6 (with NaOH), and gentamicin (50 μg/ml, GIBCO-BRL, Gaithersburg, MD). Oocyte membrane voltage was controlled using an OC-725C oocyte clamp (Warner Instruments, Hamden, CT). Data were filtered at 1–3 kHz and digitized at 20 kHz using pClamp software (Molecular Devices, Sunnyvale, CA) and a Digidata 1440A digitizer (Axon Instruments). Microelectrode resistances were 0.1–1 MΩ when filled with 3 M KCl. For recording TRP channel currents, the external recording solution contained (in mM) 100 KCl, 10 HEPES, pH 7.6 (with KOH). Experiments were performed at room temperature (~22°C), except as indicated otherwise. […] Current time courses were obtained by stepping membrane voltage every 2 s from a holding potential of 0 mV to either −60 or +60 mV for 100 ms, and plotting the mean steady-state current at the end of each voltage step as a function of total recording time. I-V relations were obtained similarly, but voltage was stepped every 2 s to a different value, in 10 mV increments and starting at −60 mV.

Q: Which “channel activation (current response)” value [1] does the source give for `NCCOB(c1ccccc1)c1ccccc1` [2-APB, 2-aminoethoxydiphenyl borate] here?
A: strong responses

Q: What does the source list for `C=C(C)[C@]12C[C@@H](C)[C@@]34O[C@](Cc5ccccc5)(O[C@@H]1[C@@H]3C=C(COC(=O)Cc1ccc(O)c(OC)c1)C[C@]1(O)C(=O)C(C)=C[C@@H]41)O2` [RTx, resiniferatoxin]?
A: channel activation (current response) [2]: detectable responses; channel activation (current response) [3]: robust RTx-activated currents; dissociation of RTx (TRPV3-6M + 5PM): exceedingly slow; response to RTx compared with maximal response to 2-APB (TRPV3-6M + 5PM; RTx 100 nM, 2-APB 3 mM, +60 mV): similar

Source: article PMC6333442, “Conserved allosteric pathways for activation of TRPV3 revealed through engineering vanilloid-sensitivity” (eLife, 2019)
